Measurements: ChEMBL document CHEMBL3351444, “Poliothrysoside and its derivatives as novel insulin sensitizers potentially driving AMPK activation and inhibiting adipogenesis” (Eur J Med Chem, 2014)
Calls of active or inactive are those of the source. No cut-off for these calls is given here.

How the values were obtained:
3T3-L1 [1] = assay: Induction of [3H] 2-deoxyglucose uptake in chronic insulin resistant mouse 3T3L1 cells assessed as maximum uptake at 10 uM by liquid scintillation counting; format: functional
3T3-L1 [2] = assay: Induction of AMPK phosphorylation in mouse 3T3L1 cells at 1 mM by Western blot analysis; format: cell-based
3T3-L1 [3] = assay: Induction of [3H] 2-deoxyglucose uptake in chronic insulin resistant mouse 3T3L1 cells at 10 uM after 24 hrs by liquid scintillation counting in presence of AMPK inhibitor compound C; format: functional, cell-based
3T3-L1 [4] = assay: Inhibition of adipogenesis in mouse 3T3L1 cells assessed as reduction in lipid droplet formation by using Oil-Red O by microscopy; format: functional, cell-based
3T3-L1 [5] = assay: Induction of AMPK phosphorylation in mouse 3T3L1 cells at 10 uM by Western blot analysis; format: cell-based
[6] = Toxicity in mouse 3T3L1 cells; format: cell-based; details: 3t3-l1
3T3-L1 [7] = assay: Inhibition of adipogenesis in mouse 3T3L1 cells assessed as reduction in lipid droplet formation at 50 uM by using Oil-Red O by microscopy; format: functional
3T3-L1 [8] = assay: Induction of [3H] 2-deoxyglucose uptake in chronic insulin resistant mouse 3T3L1 cells assessed as maximum uptake by liquid scintillation counting; format: functional, cell-based
3T3-L1 [9] = assay: Induction of AKT phosphorylation in mouse 3T3L1 cells at 10 uM by Western blot analysis; format: cell-based
3T3-L1 [10] = assay: Inhibition of adipogenesis in mouse 3T3L1 cells assessed as reduction in lipid droplet formation at 20 uM by using Oil-Red O by microscopy; format: functional
3T3-L1 [11] = assay: Inhibition of adipogenesis in mouse 3T3L1 cells assessed as reduction in lipid droplet formation at 10 uM by using Oil-Red O by microscopy; format: functional, cell-based

For `O=C(OC[C@H]1O[C@@H](Oc2ccc(OCc3ccccc3)cc2CO)[C@H](O)[C@@H](O)[C@@H]1O)c1ccccc1`, the Activity (3T3-L1 [1]) was “Active”.

In the case of `O=C(COc1ccc(O[C@@H]2O[C@H](COC(=O)c3ccccc3)[C@@H](O)[C@H](O)[C@H]2O)c(CO)c1)c1ccccc1`, the Activity (3T3-L1 [1]) is reported as “Active”.

For `CN(C)C(=N)NC(=N)N`, the Activity (3T3-L1 [2]) was “Active”.

In the case of `O=C(COc1ccc(O[C@@H]2O[C@H](COC(=O)c3ccccc3)[C@@H](O)[C@H](O)[C@H]2O)c(CO)c1)c1ccc(Cl)cc1`, the Activity (3T3-L1 [1]) is reported as “Active”.

With `CC(=O)OCc1cc(OC(C)=O)ccc1O[C@@H]1O[C@H](COC(=O)c2ccccc2)[C@@H](OC(C)=O)[C@H](OC(C)=O)[C@H]1OC(C)=O` the Activity (3T3-L1 [3]) was “inactive”, the inhibition (3T3-L1 [4]) was “Dose-dependent effect” and the Activity (3T3-L1 [5]) was “Active”. The Activity (3T3-L1 [1]) was 17.35 pmol/mg/min, the Activity [6] was “Non-toxic” and the inhibition at 50 µM (3T3-L1 [7]) was 64%. The Activity (3T3-L1 [8]) was “Dose-dependent effect”, the Activity (3T3-L1 [9]) was “inactive” and the inhibition at 20 µM (3T3-L1 [10]) was 20%. For the same compound, the inhibition (3T3-L1 [11]) was “inactive”.

In the case of `CCOc1ccc(O[C@@H]2O[C@H](COC(=O)c3ccccc3)[C@@H](O)[C@H](O)[C@H]2O)c(CO)c1`, the Activity (3T3-L1 [1]) is reported as “Active”.

With `O=C(OC[C@H]1O[C@@H](Oc2ccc(O)cc2CO)[C@H](O)[C@@H](O)[C@@H]1O)c1ccccc1` the Activity (3T3-L1 [1]) was “Active”.

With `O=C(OC[C@H]1O[C@@H](Oc2ccc(OCc3ccc([N+](=O)[O-])cc3)cc2CO)[C@H](O)[C@@H](O)[C@@H]1O)c1ccccc1` the Activity (3T3-L1 [1]) was “Active”.
